# Measured values reported in ChEMBL document CHEMBL1150183, “Spermine alkaloids from Schweinfurthia papilionacea” (J Nat Prod, 1990).
# Tests used:
# Format in all cases: toxicity, organism-based
# Salmonella typhimurium [1] = assay: Mutagenic activity in Salmonella Typhimurium TA100 assessed as increase in spontaneous revertants by Ames test relative to control spontaneous reversion; conditions: salmonella enterica subsp. enterica serovar typhimurium
# Salmonella typhimurium [2] = assay: Mutagenic activity in Salmonella Typhimurium TA97a assessed as number of spontaneous revertants at 500 ug/plate by Ames test in absence of rat liver microsomal S9 fraction; conditions: salmonella enterica subsp. enterica serovar typhimurium
# Salmonella typhimurium [3] = assay: Mutagenic activity in Salmonella Typhimurium TA100 assessed as number of spontaneous revertants at 500 ug/plate by Ames test in presence of rat liver microsomal S9 fraction; conditions: salmonella enterica subsp. enterica serovar typhimurium, microsomes
# Salmonella typhimurium [4] = assay: Mutagenic activity in Salmonella Typhimurium TA98 assessed as increase in spontaneous revertants by Ames test relative to control spontaneous reversion; conditions: salmonella enterica subsp. enterica serovar typhimurium
# Salmonella typhimurium [5] = assay: Mutagenic activity in Salmonella Typhimurium TA100 assessed as number of spontaneous revertants at 500 ug/plate by Ames test in absence of rat liver microsomal S9 fraction; conditions: salmonella enterica subsp. enterica serovar typhimurium
# Salmonella typhimurium [6] = assay: Mutagenic activity in Salmonella Typhimurium TA98 assessed as number of spontaneous revertants at 500 ug/plate by Ames test in presence of rat liver microsomal S9 fraction; conditions: salmonella enterica subsp. enterica serovar typhimurium, microsomes
# Salmonella typhimurium [7] = assay: Mutagenic activity in Salmonella Typhimurium TA98 assessed as number of spontaneous revertants at 500 ug/plate by Ames test in absence of rat liver microsomal S9 fraction; conditions: salmonella enterica subsp. enterica serovar typhimurium
smiles,measurement,setting,value
O=C1C[C@H]2NCCCNCCCCN(CCCN1)C(=O)[C@@H]1c3cc2ccc3O[C@H]1c1ccc(O)cc1,fold change (FC),Salmonella typhimurium [1],4
same,Activity,Salmonella typhimurium [2],0
same,Activity,Salmonella typhimurium [3],461
same,fold change (FC),Salmonella typhimurium [4],22
same,Activity,Salmonella typhimurium [5],143
same,Activity,Salmonella typhimurium [6],778
same,Activity,Salmonella typhimurium [7],81
